Values after ≈ are worked out from the molar mass of the structure shown. Like-named read-outs stand apart in the source and are kept apart here.
Key:
HBV DNA polymerase = biological target: T1, HBV DNA polymerase (Hepatitis B virus genotype D subtype ayw, UniProt P03156); assay: HBV DNA polymerase assay; format: biochemical
T1 construct: HBV DNA polymerase in viral particles; host or cells: viral particles
Protocol: Assay was performed as described by Hantz (Antiviral Res 4(1984) 187-199) with minor modification. The Reaction mixture consisted of HBV DNA polymerase in viral particles in 200 mmol.l^-1 of Tris-HCl pH 7.6, 200 mmol.l^-1 of NH4 Cl. 50 mmol.l^-1 of MgCl2, 10 mmol.l^-1 of 2-mercaptoethanol, 2% Nonidet P-40 and 300 μmol.l^-1 concentrations of deoxynucleotide triphosphates except for [^3 H]dTTP, which was included in the assay at 20 μci.ml^-1. […] The mixtures were incubated at 37° C. for 4 h prior to spotting on Whatman No.3 filter paper which was washed 4 times with cold 5% trichloroacitic acid, then with ethanol. The HBV DNA polymerase activity as measure of the incorperation of the radionucleotide into the viral DNA was counted in a Recbeta (LKB)scintilation counter.

Hep G2 cell lines = assay: Cytotoxicity in Hep G2 cell lines; format: cell-based; conditions: 1.0 μg.ml^-1
Protocol: The viability of cells was determined by MTT.

HBeAg = assay: microbe, parasite or virus in culture; format: cell-based, HBV; conditions: Hepatitis B virus; for inhibition at 7.81 µg/mL / inhibition at 15.63 µg/mL / inhibition at 31.25 µg/mL / inhibition at 62.5 µg/mL / inhibition at 125 µg/mL / inhibition at 250 µg/mL: read-out: HBeAg Inhibit rate (%)
Protocol: (§1) The cultures were passenged by trypsinization every 4 days.
(§2) HBsAg and HBeAg in the culture medium were determined according to the protocol respectively. The culture medium (200 μl) was absorbed on beads containing antibody to HBsAg/HBeAg in the presence of the conjugate. After overnight incubation, the beads were washed 6 times with […] PBS containing 0.05% Tween-80 and incubated with 200 μl of [^125 I] anti-HBs(Hbe) overnight. The beads were washed 6 times as above. The amounts HBsAg/HBeAg as measure of cpm of [^125 I] labeled immunocomplex was counted on γ-counter.

HBsAg = assay: microbe, parasite or virus in culture; format: cell-based, HBV; conditions: Hepatitis B virus; for inhibition at 7.81 µg/mL / inhibition at 15.63 µg/mL / inhibition at 31.25 µg/mL / inhibition at 62.5 µg/mL / inhibition at 125 µg/mL / inhibition at 250 µg/mL: read-out: HBsAg Inhibit rate (%)
Protocol: as §1, §2

DHBV = assay: anti-DHBV test in ducks (serum DHBV DNA dot blot); format: in vivo, DHBV in Peking (Beijing) ducks
Protocol: One-day-old ducklings were infected with a 200 μl intravenous injection of DHBV-positive serum containing 10^11 viral genome equivalents per milliliter. Treatment began when ducklings were 7 days old. A total 89 seven-day-old viraemic ducks were distributed at random into five groups. […] Post-treatment follow-up was carried over a period of 5 days. Blood samples were obtained repectively from the leg vein of all ducks and stored at -70° C. after serum separation, prior to treatment, weekly during the treatment, and for 5 days after cessation of treatment. They were screened for presence of DHBV DNA by dot blot hybridization.
DHBV DNA in serum was analyzed by molecular hybridization using full length DHBV DNA clones in PB325. The DHBV DNA insert was purified by agarose gel electrophoresis after digestion with EcoRI. The DHBV DNA was radiolabeled with α^32 P-dCTP random oligopriming with Klenow fragment. Dot blot hybridization was carried out by the method of Scotto et al. Briefly, an aliquot (200 μl) serum was spotted onto a nylon membrane (Hybond-N, Amersham International, England) in dot blot manifold and denatured with 0.5 M NaOH--NaCl at room temperature for 30 min. Each spotted sample was neutralized in 1M Tris.HCl-1.5M NaCl (pH8.0). The DNA on the membrane was fixed by heating at 80° C. for 2 h, and prehybridization at 37° C. overnight in 50% formamide, 5×Denhardt's, 6×SSC,[…], 0.5% SDS and 10 mg/ml of calf thymus DNA. Hybridization was initiated by adding DHBV [^32 P] DNA probes at 10^6 cpm/ml at the same prehybridization conditions overnight. The membrane was washed in 3×SSC-0.1% SDS at room temperature, 42° C. and 65° C. for 10 min respectively. After hybridization the membranes were air-dried and exposed for periods of up to 14 days at -70° C. with Kodak film with an enhancer screen. The amount of viral DNA were assayed by both densitometry and image analysis of autoradiographic membranes.

T1 sequence (P03156 whole entry): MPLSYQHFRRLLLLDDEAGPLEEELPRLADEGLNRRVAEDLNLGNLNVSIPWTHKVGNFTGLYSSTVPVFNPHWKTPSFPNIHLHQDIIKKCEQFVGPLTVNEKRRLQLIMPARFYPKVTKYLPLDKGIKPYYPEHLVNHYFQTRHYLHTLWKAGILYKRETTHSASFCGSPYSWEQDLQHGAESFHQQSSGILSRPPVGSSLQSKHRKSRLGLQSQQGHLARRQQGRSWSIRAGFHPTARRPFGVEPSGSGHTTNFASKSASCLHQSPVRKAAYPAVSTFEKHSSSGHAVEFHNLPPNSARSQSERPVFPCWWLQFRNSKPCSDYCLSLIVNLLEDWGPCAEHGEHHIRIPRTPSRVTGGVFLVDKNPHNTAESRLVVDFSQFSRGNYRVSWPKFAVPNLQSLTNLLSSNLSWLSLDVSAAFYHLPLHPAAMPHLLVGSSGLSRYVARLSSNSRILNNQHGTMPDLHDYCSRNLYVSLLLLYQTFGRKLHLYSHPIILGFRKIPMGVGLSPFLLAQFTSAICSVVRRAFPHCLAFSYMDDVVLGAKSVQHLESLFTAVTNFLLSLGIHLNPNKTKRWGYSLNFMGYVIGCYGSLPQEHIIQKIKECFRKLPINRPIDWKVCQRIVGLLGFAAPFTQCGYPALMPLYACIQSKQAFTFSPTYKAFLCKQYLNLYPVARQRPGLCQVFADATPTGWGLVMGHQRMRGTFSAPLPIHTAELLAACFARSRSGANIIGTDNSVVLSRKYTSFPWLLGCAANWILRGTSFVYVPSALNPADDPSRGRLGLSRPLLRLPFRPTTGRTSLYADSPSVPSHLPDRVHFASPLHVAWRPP

Q: For `O=C(/C=C/c1ccc(O)c(O)c1)OC1CC(OC(=O)/C=C/c2ccc(O)c(O)c2)(C(=O)O)CC(O)C1O` (stereo not shown) [Compound A, 1,5-di-O-caffeoylquinic acid], which IC50 (HBV DNA polymerase) is on record?
A: 59.3 µM

Q: And the “inhibitory effect on HBV DNAp” value (HBV DNA polymerase)?
A: significant dose-dependent inhibitory effect

Q: And the cpm (HBV DNA polymerase; 1 μg/ml)?
A: 9856 ± 201 cpm

Q: What about the cpm (HBV DNA polymerase; 10 μg/ml) of the same compound?
A: 7990 ± 79 cpm

Q: What about the cpm (HBV DNA polymerase; 100 μg/ml) of the same compound?
A: 3522 ± 51 cpm

Q: What about the cpm (HBV DNA polymerase; 1000 μg/ml) of the same compound?
A: 1983 ± 159 cpm

Q: What about the inhibition at 1 µg/mL (HBV DNA polymerase; read-out: Inhibitory rate (%)) of the same compound?
A: 11.2 ± 1.9%

Q: And the inhibition at 10 µg/mL (HBV DNA polymerase; read-out: Inhibitory rate (%))?
A: 30.3 ± 0.8%

Q: What about the inhibition at 100 µg/mL (HBV DNA polymerase; read-out: Inhibitory rate (%)) of the same compound?
A: 68.4 ± 0.5%

Q: What about the inhibition at 1000 µg/mL (HBV DNA polymerase; read-out: Inhibitory rate (%)) of the same compound?
A: 82.3 ± 1.5%

Q: What about the “toxicity to Hep G2 cell lines” value (Hep G2 cell lines) of the same compound?
A: did not show toxicity

Q: What about the inhibition at 7.81 µg/mL (HBeAg; 96 h) of the same compound?
A: 8.94 ± 4.29%

Q: What about the inhibition at 15.63 µg/mL (HBeAg; 96 h) of the same compound?
A: 19.1 ± 3.89%

Q: What about the inhibition at 31.25 µg/mL (HBeAg; 96 h) of the same compound?
A: 34.5 ± 6.66%

Q: And the inhibition at 62.5 µg/mL (HBeAg; 96 h)?
A: 41 ± 3.68%

Q: And the inhibition at 125 µg/mL (HBeAg; 96 h)?
A: 47.4 ± 1.09%

Q: What about the inhibition at 250 µg/mL (HBeAg; 96 h) of the same compound?
A: 64.2 ± 2.03%

Q: What about the inhibition at 7.81 µg/mL (HBeAg; 288 h) of the same compound?
A: 15.9 ± 2.4%

Q: And the inhibition at 15.63 µg/mL (HBeAg; 288 h)?
A: 27.8 ± 2.23%

Q: And the inhibition at 31.25 µg/mL (HBeAg; 288 h)?
A: 30.5 ± 3.55%

Q: And the inhibition at 62.5 µg/mL (HBeAg; 288 h)?
A: 47.3 ± 0.81%

Q: And the inhibition at 125 µg/mL (HBeAg; 288 h)?
A: 54.5 ± 1.01%

Q: What about the inhibition at 250 µg/mL (HBeAg; 288 h) of the same compound?
A: 66.5 ± 0.9%

Q: And the inhibition at 7.81 µg/mL (HBeAg; […])?
A: 10.4 ± 2.05%

Q: And the inhibition at 15.63 µg/mL (HBeAg; […])?
A: 31.7 ± 7.1%

Q: What about the inhibition at 31.25 µg/mL (HBeAg; […]) of the same compound?
A: 41.8 ± 2.47%

Q: What about the inhibition at 62.5 µg/mL (HBeAg; […]) of the same compound?
A: 45.2 ± 2.47%

Q: What about the inhibition at 125 µg/mL (HBeAg; […]) of the same compound?
A: 52.5 ± 1.89%

Q: And the inhibition at 250 µg/mL (HBeAg; […])?
A: 64.7 ± 2.28%

Q: What about the IC50 (HBeAg; read-out: IC50, production of HBeAg) of the same compound?
A: 21 to 78 µg/mL (≈ 40.7 to 151 µM)

Q: And the inhibition at 7.81 µg/mL (HBsAg; 96 h)?
A: 17.2%

Q: What about the inhibition at 15.63 µg/mL (HBsAg; 96 h) of the same compound?
A: 26%

Q: What about the inhibition at 31.25 µg/mL (HBsAg; 96 h) of the same compound?
A: 37.2 ± 2.86%

Q: What about the inhibition at 62.5 µg/mL (HBsAg; 96 h) of the same compound?
A: 47.5 ± 1.17%

Q: What about the inhibition at 125 µg/mL (HBsAg; 96 h) of the same compound?
A: 57%

Q: And the inhibition at 250 µg/mL (HBsAg; 96 h)?
A: 62.3 ± 2.22%

Q: And the inhibition at 7.81 µg/mL (HBsAg; 288 h)?
A: 24.2 ± 4.63%

Q: What about the inhibition at 15.63 µg/mL (HBsAg; 288 h) of the same compound?
A: 31.4 ± 3.2%

Q: What about the inhibition at 31.25 µg/mL (HBsAg; 288 h) of the same compound?
A: 36.1%

Q: And the inhibition at 62.5 µg/mL (HBsAg; 288 h)?
A: 50.1 ± 1.28%

Q: What about the inhibition at 125 µg/mL (HBsAg; 288 h) of the same compound?
A: 58.3%

Q: And the inhibition at 250 µg/mL (HBsAg; 288 h)?
A: 66.6%

Q: And the inhibition at 7.81 µg/mL (HBsAg; […])?
A: 18.5%

Q: What about the inhibition at 15.63 µg/mL (HBsAg; […]) of the same compound?
A: 27.6%

Q: And the inhibition at 31.25 µg/mL (HBsAg; […])?
A: 35.8 ± 1.9%

Q: What about the inhibition at 62.5 µg/mL (HBsAg; […]) of the same compound?
A: 46.7 ± 2.03%

Q: What about the inhibition at 125 µg/mL (HBsAg; […]) of the same compound?
A: 55 ± 2.08%

Q: And the inhibition at 250 µg/mL (HBsAg; […])?
A: 68.8 ± 4.68%

Q: What about the IC50 (HBsAg; read-out: IC50, production of HBsAg) of the same compound?
A: 21 to 165 µg/mL (≈ 40.7 to 319 µM)

Q: What about the IC50 (HBsAg; read-out: IC50 for inhibition of production of HBsAg) of the same compound?
A: 21 to 165 µg/mL (≈ 40.7 to 319 µM)

Q: And the “inhibition of DHBV DNA” value (DHBV; 50 mg.kg of body weight^-1.day^-1)?
A: strange inhibition of DHBV DNA

Q: What about the inhibition of viraemia (DHBV; 50 mg.kg of body weight^-1.day^-1, day 14) of the same compound?
A: 87%

— patent US6331565A, “Dicaffeoylquinic acid for treating hepatitis B and the diseases associated with retrovirus, and the new caffeoylquinic acid derivatives” (Institute of Radiation Medicine Academy of Military Medical …, priority 1996, dated 2001)
